The numbers were not newly measured in US20080280850A1, “Methods and Compositions for Treating Flaviviruses, Pestiviruses and Hepacivirus” (priority 2004, published 2008), which cites them from elsewhere.

Each structure is given as a SMILES string.

The subject of this data set is HCV.

With `NC(=O)c1ncn([C@@H]2O[C@H](CO)[C@@H](O)[C@H]2O)n1` [Ribavirin, 1-[…]D-ribofuranosyl-1-1,2,4-triazole-3-carboxamide], the “effect on serum levels of HCV-RNA” value (patients, monotherapy) was “does not lower serum levels of HCV-RNA”. Under “ribavirin alone”, the “serum amino transferase levels reduced to normal, share of patients” value is 40%.
